# Patent US20260209242A1, “CAMPTOTHECIN DERIVATIVE, PHARMACEUTICAL COMPOSITION, AND PREPARATION METHOD AND USE THEREFOR” (priority 2022, published 2026)
# pIC50: −log10 of the molar value. Read-outs that look alike come from different tables or passages of the source.
# How the values were obtained:
# [1] = system: NCI-N87; test: Inhibition of proliferation of cells NCI-N87 (CelltiterGlo, 72 h); assay type: cell-based; settings: Homo sapiens; NCI-N87 cells, 72 h, CTG; read-out: IC50 (nM), antiproliferative activity on cells NCI-N87
# Protocol: • (1) Cell plating: first, tumor cells NCI-N87 were cultured using a corresponding culture medium, trypsinized, centrifuged, resuspended for counting, adjusted to an appropriate concentration, and then plated on a 384-well plate. • (2) Co-incubation of the compounds and tumor cells: after the cells adhered to the wall, 100 nL of a diluted bioactive substance (test compound) was added to the cell culture plate using ECHO, the final concentration of DMSO in wells of the cell plate was 0.33%, and the incubation was performed in an incubator at 37° C. with […] for 72 h. • (3) After the incubation was complete, 30 μL of a CTG reagent (CelltiterGlo kit) was added to each well. The culture was oscillated on a fast oscillator for 2 min, centrifuged at 1,000 rpm for 1 min, and kept away from light at room temperature for 30 min. The chemiluminescence signal value was read using an Envision instrument. • (4) Cell viability detection: IC50 was calculated using GraphPad Prism 8 software, and the IC50 of the compounds was obtained using the following nonlinear fitting formula (see Table 3):
# [formula] • Y: inhibition rate, X: log value of compound concentration;
# [formula] • high-reading control wells: cells with addition of 100 nL DMSO; and • low-reading control wells: cell-free wells.
# [2] = target: CYP2D6 (Homo sapiens, UniProt P10635); test: Inhibition on human hepatomicrosomes CYP2D6
# [3] = Stability of compounds in human plasma; assay type: in vitro ADME; settings: 5 μmol/L
# [4] = target: T1, CYP3A4 (Homo sapiens, UniProt P08684); test: Inhibition on human hepatomicrosomes CYP3A4; assay type: in vitro ADME
# T1 construct: from tissue; host or cells: human liver microsomes
# [5] = Stability of compounds in human plasma; assay type: in vitro ADME
# Protocol: • (1) 199 μL of human plasma was added to the culture plate of each cell. The culture plate was preheated to 37° C., and kept at this temperature for 15 min. • (2) After preincubation, 1 μL of 1 mmol/L each test compound and 1 μL of 1 mmol/L control compound were added to 199 μL of plasma, so that a final concentration of each test compound was 5 μmol/L and that of the control compound was 5 gmol/L. The final concentration of the organic solvent was 0.5%. The experiment would be duplicated twice. • (3) Reaction samples were incubated at 37° C. • (4) The reaction was stopped by adding 600 μL of cold methanol containing the internal standard at 0, 1, 2, 6, and 24 h. Each sample was vortex mixed for 10 min, and then centrifuged at 3,220 g for 30 min to precipitate the protein. […] Based on the signal response and peak shapes of liquid chromatography-mass spectrometry (LC-MS), the supernatant would be diluted with ultrapure water.
# All calculations were performed using Microsoft Excel. The peak area ratio was determined from the chromatogram of extracted ions. The percentage of compounds remaining at each time point was calculated as per the following formula: […]
# [6] = Kinetic solubility test in PBS 7.4; assay type: physicochemical
# Protocol: 10 mM stock solutions of the test substances 6-2, 11-2, 17-2, Dxd, and the control drugs progesterone and diclofenac were prepared using DMSO respectively.
# 15 μL of 10 mM stock solution of each of the test substances was added to a corresponding position of a corresponding 96-well plate in a specified sequence. 485 μL of the PBS 7.4 was added to a corresponding vial on a sample plate. The experiment was run in duplicate. Each vial was additionally provided with a stirring rod and was plugged. Then, the sample plate was transferred in a thermostatic mixer, and oscillated at a revolving speed of 1,100 rpm at 25° C. for 2 h. 2 h later, the plug was removed, the stirring rod was attracted away with a large magnet, and then the sample was transferred from the sample plate to the filter plate. Negative pressure was generated using a vacuum pump to filter the sample. 5 μL of filtrate and 5 μL of blank DMSO were transferred to another sample plate, and then 490 μL of internal standard water (acetonitrile:water=1:1) containing the internal standard was added. Depending on peak shapes, a certain proportion of internal standard water may be used to dilute the sample diluent to obtain better peak shapes.
# 6 μL was transferred from the 10 mM DMSO stock solution plate to a blank plate, and was prepared into a 300 μM standard substance solution with addition of 194 μL of DMSO. 5 μL was transferred from the 300 μM standard substance solution plate to still another blank plate, and then 5 μL of blank buffer and 490 μL of the internal standard water containing the internal standard (acetonitrile:water=1:1) were added until a final concentration of the standard substance solution was 3 μM.
# An injection plate was transferred on an injection tray of an autosampler to evaluate the sample by LC/MS analysis.
# All calculations were performed using Microsoft Excel.
# The sample filtrate was analyzed and quantified by qualitative and quantitative LC/MS of standard substance peaks at known concentrations. The calculation formula for the solubility values of the reference drugs and the test substances are as follows:
# [Sample] is the compound concentration, DFSample refers to the sample dilution factor, [STD] is the standard substance concentration of the compound, AREAStd is the standard substance peak area of the compound, and AREASample is the peak area of the compound sample.
# [7] = target: T2, CYP1A2 (Homo sapiens, UniProt P05177); test: Inhibition on human hepatomicrosomes CYP1A2
# T2 sequence (P05177 1-516): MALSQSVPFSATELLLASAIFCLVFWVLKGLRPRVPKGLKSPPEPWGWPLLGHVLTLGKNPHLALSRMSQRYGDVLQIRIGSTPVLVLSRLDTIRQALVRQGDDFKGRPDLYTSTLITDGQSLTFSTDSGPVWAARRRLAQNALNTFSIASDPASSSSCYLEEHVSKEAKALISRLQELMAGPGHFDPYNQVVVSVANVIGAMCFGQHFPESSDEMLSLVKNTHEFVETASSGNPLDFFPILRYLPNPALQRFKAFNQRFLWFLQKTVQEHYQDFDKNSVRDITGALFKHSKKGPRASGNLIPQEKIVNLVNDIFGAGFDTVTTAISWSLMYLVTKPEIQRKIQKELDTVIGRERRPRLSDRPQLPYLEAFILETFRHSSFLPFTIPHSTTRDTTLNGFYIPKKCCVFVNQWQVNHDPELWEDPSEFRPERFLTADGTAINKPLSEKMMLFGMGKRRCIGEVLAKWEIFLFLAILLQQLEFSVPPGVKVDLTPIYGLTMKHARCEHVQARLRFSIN
# T1 sequence (P08684 whole entry): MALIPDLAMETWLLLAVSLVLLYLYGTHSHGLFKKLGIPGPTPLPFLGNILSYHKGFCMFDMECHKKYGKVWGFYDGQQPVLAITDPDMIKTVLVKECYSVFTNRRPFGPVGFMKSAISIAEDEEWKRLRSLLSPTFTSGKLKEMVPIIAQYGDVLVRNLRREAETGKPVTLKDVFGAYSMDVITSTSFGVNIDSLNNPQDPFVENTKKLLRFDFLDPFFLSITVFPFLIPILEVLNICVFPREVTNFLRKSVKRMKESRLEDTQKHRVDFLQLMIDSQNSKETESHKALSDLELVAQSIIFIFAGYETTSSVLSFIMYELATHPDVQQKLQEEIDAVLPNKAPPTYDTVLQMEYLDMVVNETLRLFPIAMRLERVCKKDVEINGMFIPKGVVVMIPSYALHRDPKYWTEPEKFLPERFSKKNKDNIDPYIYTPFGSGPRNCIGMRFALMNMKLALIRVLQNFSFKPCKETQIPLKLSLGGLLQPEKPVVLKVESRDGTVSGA
# CYP2D6, sequence (P10635 whole entry): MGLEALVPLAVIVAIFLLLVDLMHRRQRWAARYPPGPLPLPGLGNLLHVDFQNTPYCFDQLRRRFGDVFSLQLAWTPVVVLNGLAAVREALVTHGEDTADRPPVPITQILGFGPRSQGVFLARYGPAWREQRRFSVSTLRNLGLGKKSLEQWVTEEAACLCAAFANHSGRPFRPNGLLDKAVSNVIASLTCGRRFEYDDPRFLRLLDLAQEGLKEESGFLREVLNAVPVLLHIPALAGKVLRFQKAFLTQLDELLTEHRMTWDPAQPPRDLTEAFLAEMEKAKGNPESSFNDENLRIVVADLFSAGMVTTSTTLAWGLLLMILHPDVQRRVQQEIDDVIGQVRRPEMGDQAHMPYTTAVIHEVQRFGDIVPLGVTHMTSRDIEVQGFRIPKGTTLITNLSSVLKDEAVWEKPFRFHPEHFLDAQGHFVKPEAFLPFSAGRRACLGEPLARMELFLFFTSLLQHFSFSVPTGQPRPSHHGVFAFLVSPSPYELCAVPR
structure (smiles),measurement,setting,value
"CC[C@@]1(O)C(=O)OCc2c1cc1n(c2=O)Cc2c-1nc1cc(F)c(C)c3c1c2[C@@H](NC(=O)[C@@H](O)C1CC1)CCC3 [Compound 11-2, (S)-2-cyclopropyl-N-((1S,10S)-10-ethyl-6-fluoro-10-hydroxy-5-methyl-11,14-dioxo-1,2,3,4,10,11,14,16-octahydro-13H-cyclohepta[de]pyrano[3′,4′:6,7]indolizino[1,2-b]quinolin-1-yl)-2-hydroxyacetamide]",IC50,[1],2.3 nM
same,pIC50,[2],< 4.52
same,Residual percentage (%) 4 h,[3],93.40%
same,pIC50,[4],< 4.52
same,IC50,"[4]; read-out: 3A4T (IC50 μM), human hepatomicrosomes, substrate testosterone",> 30 µM
same,Residual percentage (%) 1 h,"[5]; 1 h, 5 μmol/L",96.80%
same,Residual percentage (%) 2 h,"[5]; 2 h, 5 μmol/L",92.06%
same,Residual percentage (%) 6 h,"[5]; 6 h, 5 μmol/L",94.45%
same,Residual percentage (%) 24 h,"[5]; 24 h, 5 μmol/L",88.81%
same,stability in human plasma (in words),[5]; plasma,good stability in human plasma
same,solubility in the PBS 7.4 compared with Dxd (in words),[6],significantly better solubility in the PBS 7.4 than Dxd
same,solubility at 2 h,"[6]; 25 °C, pH 7.4, aqueous buffer, kinetic from dmso stock",34 µM
same,pIC50,[7],< 4.52
